Measurements reported in patent publication US20260008760A1, “DIPEPTIDYL PEPTIDASE 1 INHIBITORS AND USES THEREOF” (Insmed Incorporated, priority 2024, published 2026).

How the values were obtained:
human DPP1 enzyme = human DPP1 enzyme (Homo sapiens, UniProt P53634); assay: Human DPP1 Enzyme Single-Point Percent Inhibition Testing (HL-60 lysate); assay type: biochemical; design: A crude lysate of HL-60 cells (ATCC; Manassas, VA) was used as a source of human DPP1 enzyme; host or cells: HL-60 cells (crude lysate); settings: final compound concentration of 10 nM, 400 μM H-Gly-Arg-AMC, n = 1
human DPP1 enzyme, sequence (P53634 25-463): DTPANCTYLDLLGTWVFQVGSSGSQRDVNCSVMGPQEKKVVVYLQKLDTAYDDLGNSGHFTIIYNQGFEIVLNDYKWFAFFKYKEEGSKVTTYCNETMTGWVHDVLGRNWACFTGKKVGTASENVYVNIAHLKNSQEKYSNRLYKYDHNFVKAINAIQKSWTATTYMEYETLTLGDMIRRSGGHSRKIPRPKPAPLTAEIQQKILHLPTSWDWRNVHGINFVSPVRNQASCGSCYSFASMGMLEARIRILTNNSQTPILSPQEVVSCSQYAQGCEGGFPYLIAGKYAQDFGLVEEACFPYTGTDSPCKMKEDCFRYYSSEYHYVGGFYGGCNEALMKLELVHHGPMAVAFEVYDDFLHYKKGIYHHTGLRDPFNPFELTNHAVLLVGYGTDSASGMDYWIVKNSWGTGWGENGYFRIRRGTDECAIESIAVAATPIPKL
Procedure: Example 98. Human DPP1 Enzyme Single-Point Percent Inhibition Testing
A crude lysate of HL-60 cells (ATCC; Manassas, VA) was used as a source of human DPP1 enzyme in the assay. Lysate was prepared in 1% Triton X-100 in PBS at a concentration of 20,000 live cells per μL of lysis buffer and was centrifuged at 16,000 rcf for 10 minutes at 4° C., after which supernatant was collected and flash-frozen in liquid nitrogen. Test articles were applied to human DPP1 enzyme in Assay Buffer (25 mM MES pH 6.0, 50 mM NaCl, 5 mM DTT) in a total reaction volume of 125 μL. 25 μL of compound diluted to 50 nM in Assay Buffer plus 5% DMSO was first added to 50 μL of HL-60 lysate diluted to contain a DPP1 enzyme concentration of roughly 1 ng/μL and allowed to pre-incubate for 10 minutes at 37° C. after which 50 μL of 1000 μM H-Gly-Arg-AMC substrate (Bachem; St. Torrance, CA) was added, giving final compound concentration of 10 nM, a final substrate concentration of 400 μM and a final DMSO concentration of 1%. Substrate cleavage was measured for 90 minutes at 37° C., with fluorescence at Excitation/Emission 350/450 nm measured every 5 minutes. DPP1 concentration was interpolated based on its activity relative to a standard curve of activated human recombinant DPP1 enzyme. Percent inhibition at 10 nM was calculated for each test article based on remaining DPP1 activity compared to enzyme activity in wells that received only vehicle control.

DPP1 in HL-60 cells = DPP1 in HL-60 cells (Homo sapiens, UniProt P53634); assay: DPP1 Cell Single-Point Percent Inhibition Testing; assay type: cell-based; design: host or cells: HL-60 cells; settings: final compound concentration 5 nM, n = 1
DPP1 in HL-60 cells, sequence (P53634 25-463): as above
Procedure: Example 100. DPP1 Cell Single-Point Percent Inhibition Testing
HL-60 cells (ATCC; Manassas, VA) were maintained in RPMI-1640 supplemented with 20% heat-inactivated FBS and 1× Antibiotic Antimycotic (Cytiva; Marlborough, MA). Media was changed every three to four days and cells were not allowed to exceed 1×10^6 cells per mL. Prior to assay, cells were collected by centrifugation at 500 rcf for 3 minutes, resuspended in RPMI (with no additional supplements) and counted. Cells were diluted in RPMI to a concentration of 5×10^5 live cells per mL and transferred to black 96-well plates for assay, 60 μL per well. Test articles were diluted to 25 nM in RPMI plus 0.5% DMSO, and 20 μL was added to each assay well. Compound was allowed to pre-incubate with cells with gentle shaking at 100 rpm for 60 minutes at 37° C. in a cell culture incubator maintained at 5% CO2, after which 20 μL of 500 μM H-Gly-Phe-AFC cell-permeable substrate (MP Biomedicals; Solon, OH) in RPMI was added to each well, giving final compound concentration of 5 nM, a final substrate concentration of 100 μM and a final DMSO concentration of 0.1%. Plates were returned to the incubator with shaking at 100 rpm for 30 minutes, after which fluorescence was measured at Excitation/Emission 400/505 nm. Percent Inhibition was calculated from RFU values by first subtracting background values (wells in which RPMI was substituted for cells) from each well, and then subtracting background-subtracted RFU derived from wells that received a final concentration of 10 μM brensocatib. This value represents the non-specific substrate cleavage from the HL-60 cells, and the remaining RFU should theoretically be solely the contribution of DPP1 enzyme activity. The final percent inhibition value was calculated for each test article based on remaining RFU compared to RFU from wells that received only vehicle control.

Compound	inhibition at 0.01 µM (human DPP1 enzyme) [%]	inhibition at 0.005 µM (DPP1 in HL-60 cells) [%]
CO[C@H]1CCO[C@H](C(=O)N[C@H](C#N)Cc2ccc(-c3cc4c(C)nc(C)c(C)n4c3)cc2)CNC1 [Compound A129]	40 to 66.7	76.5 to 93.9
Cc1cn2cc(-c3ccc(C[C@@H](C#N)NC(=O)[C@@H]4CN[C@@H](C)[C@@H](O)CO4)c(F)c3)cc2c(C)n1 [Compound A106]	≤ 40	≤ 76.5
C[C@@H]1NC[C@@H](C(=O)N[C@H](C#N)Cc2ccc(-c3ccc4c(n3)CCCN4)cc2F)OC[C@@H]1O [Compound A107]	≤ 40	≤ 76.5
CN1CC2(C1)OC(=O)c1ccc(-c3ccc(C[C@@H](C#N)NC(=O)[C@@H]4CNCCCCO4)cc3)cc12 [Compound 37]	≤ 40	≤ 76.5
CN1CCCC2(C1)C(=O)N(C)c1ccc(-c3ccc(C[C@@H](C#N)NC(=O)[C@@H]4CNCCCCO4)c(F)c3)cc12 (some centres unmarked) [Compound 41]	40 to 66.7	≤ 76.5
CO[C@@H]1CCNC[C@@H](C(=O)N[C@H](C#N)Cc2ccc(-c3cnc4c(n3)CCCC4)cc2F)OC1 [Compound A85]	≥ 66.7	≤ 76.5
CN1CCC2(C1)OC(=O)c1ccc(-c3ccc(C[C@@H](C#N)NC(=O)[C@@H]4CNCCCCO4)cc3)cc12 (some centres unmarked) [Compound 38]	≤ 40	≤ 76.5
Cc1ncc(C)n2cc(-c3ccc(C[C@@H](C#N)NC(=O)[C@@H]4CN[C@@H](C)[C@@H](O)CO4)cc3)cc12 [Compound A134]	40 to 66.7	≤ 76.5

Further lines, results first:

inhibition at 0.01 µM (human DPP1 enzyme) [%]	inhibition at 0.005 µM (DPP1 in HL-60 cells) [%]	Compound
≥ 66.7	≥ 93.9	CO[C@@H]1CCNC[C@@H](C(=O)N[C@H](C#N)Cc2cc3c(cc2F)-c2ccc(C#N)cc2CO3)OC1 [Compound B20]
≥ 66.7	≤ 76.5	CO[C@@H]1CCNC[C@@H](C(=O)N[C@H](C#N)Cc2ccc(-c3ccc(S(=O)(=O)N4CCC4)cc3)cc2F)OC1 [Compound F17]
≥ 66.7	≤ 76.5	CN1CCC(n2ncc3ccc(-c4ccc(C[C@@H](C#N)NC(=O)[C@@H]5CNCCCCO5)c(F)c4)cc32)CC1 [Compound H34]
≥ 66.7	≤ 76.5	CCN1C(=O)Cc2ccc(-c3ccc(C[C@@H](C#N)NC(=O)[C@@H]4CNC[C@@H](OC)CCO4)c(F)c3)cc21 [Compound G6]
≤ 40	≤ 76.5	C[C@@H]1NC[C@@H](C(=O)N[C@H](C#N)Cc2ccc(-c3ccc4cnn(C5CCN(C)CC5)c4c3)cc2)OC[C@@H]1O [Compound H27]
≥ 66.7	≤ 76.5	C[C@@H]1NC[C@@H](C(=O)N[C@H](C#N)Cc2ccc(-c3ccc4cnn(C5CCN(C)CC5)c4c3)cc2)OC[C@H]1O [Compound H21]
≤ 40	≤ 76.5	N#Cc1ccc2c(c1)-c1cc(F)c(CC(C#N)NC(=O)[C@@H]3CNCCCCO3)cc1OC2 (some centres unmarked) [Compound B29]
≥ 66.7	≤ 76.5	CO[C@H]1CCO[C@H](C(=O)NC(C#N)Cc2cc3c(cc2F)-c2cc4c(cc2CO3)oc(=O)n4C)CNC1 (some centres unmarked) [Compound C16]
40 to 66.7	≤ 76.5	CO[C@H]1CCO[C@H](C(=O)N[C@H](C#N)Cc2ccc(-c3ccc(S(=O)(=O)N4CCC4)cc3)cc2F)CNC1 [Compound F30]
≥ 66.7	≤ 76.5	CO[C@H]1CCO[C@H](C(=O)N[C@H](C#N)Cc2ccc(-c3ccc4c(c3)C3(CCN(C)C3)OC4=O)cc2F)CNC1 (some centres unmarked) [Compound F27]
40 to 66.7	≤ 76.5	CO[C@H]1CCO[C@H](C(=O)NC(C#N)Cc2cc3c(cc2F)-c2ccc4oc(=O)n(C)c4c2CO3)CNC1 (some centres unmarked) [Compound C17]
